In this assay the test system is 855422-203-R-J1-PDC complex spheroid growth. Kind of assay: Anticancer human tumor 855422-203-R-J1-PDC patient-derived bladder carcinoma cell line growth inhibition [AhR]. The note with it: for viability, T/C: stronger effect = lower value. The procedure, abridged: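 Agents were dosed in half-log steps down from roughly clinical Cmax, or from 10 microM where Cmax was unknown, alone and with AhR antagonists. Read-out: percent test/control growth of tumor spheroids containing HUVEC and MSC stromal cells.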

Where [1] appears, read: curve of first compound, second compound 0.1 µM.
Where [2] appears, read: curve of first compound, second compound 0.316 µM.
The mark [3] stands for this setting: curve of first compound, second compound 1 µM.
[4] abbreviates: curve of first compound, second compound 3.16 µM.
The mark [5] stands for this setting: curve of first compound, second compound 10 µM.
Where [6] appears, read: second compound 0.1 µM, first compound 0.0316 µM.
Setting [7] is: second compound 0.1 µM, first compound 0.1 µM.
[8] abbreviates: second compound 0.1 µM, first compound 0.316 µM.
Setting [9] is: second compound 0.1 µM, first compound 1 µM.
Setting [10] is: second compound 0.1 µM, first compound 3.16 µM.
The mark [11] stands for this setting: second compound 0.1 µM, first compound 10 µM.
Setting [12] is: second compound 0.316 µM, first compound 0.0316 µM.
Setting [13] is: second compound 0.316 µM, first compound 0.1 µM.
Where [14] appears, read: second compound 0.316 µM, first compound 0.316 µM.
[15] abbreviates: second compound 0.316 µM, first compound 1 µM.
Setting [16] is: second compound 0.316 µM, first compound 3.16 µM.
Setting [17] is: second compound 0.316 µM, first compound 10 µM.
Where [18] appears, read: second compound 1 µM, first compound 0.0316 µM.
[19] abbreviates: second compound 1 µM, first compound 0.1 µM.
Setting [20] is: second compound 1 µM, first compound 0.316 µM.
Where [21] appears, read: second compound 1 µM, first compound 1 µM.
Setting [22] is: second compound 1 µM, first compound 3.16 µM.
[23] abbreviates: second compound 1 µM, first compound 10 µM.
The mark [24] stands for this setting: second compound 3.16 µM, first compound 0.0316 µM.
[25] abbreviates: second compound 3.16 µM, first compound 0.1 µM.
Setting [26] is: second compound 3.16 µM, first compound 0.316 µM.
Where [27] appears, read: second compound 3.16 µM, first compound 1 µM.
Where [28] appears, read: second compound 3.16 µM, first compound 3.16 µM.
[29] abbreviates: second compound 3.16 µM, first compound 10 µM.
The mark [30] stands for this setting: second compound 10 µM, first compound 0.0316 µM.
The mark [31] stands for this setting: second compound 10 µM, first compound 0.1 µM.
Where [32] appears, read: second compound 10 µM, first compound 0.316 µM.
Setting [33] is: second compound 10 µM, first compound 1 µM.
[34] abbreviates: second compound 10 µM, first compound 3.16 µM.
Where [35] appears, read: second compound 10 µM, first compound 10 µM.
Where [36] appears, read: second compound 0.1 µM, first compound 0.00316 µM.
[37] abbreviates: second compound 0.1 µM, first compound 0.01 µM.
Setting [38] is: second compound 0.316 µM, first compound 0.00316 µM.
The mark [39] stands for this setting: second compound 0.316 µM, first compound 0.01 µM.
[40] abbreviates: second compound 1 µM, first compound 0.00316 µM.
The mark [41] stands for this setting: second compound 1 µM, first compound 0.01 µM.
The mark [42] stands for this setting: second compound 3.16 µM, first compound 0.00316 µM.
Where [43] appears, read: second compound 3.16 µM, first compound 0.01 µM.
[44] abbreviates: second compound 10 µM, first compound 0.00316 µM.
Setting [45] is: second compound 10 µM, first compound 0.01 µM.

The structures appear in SMILES notation. Values joined by “and” are separate entries in the source; they are usually repeats but may differ in a detail not shown here. Equal values may be shown once. Some results are limits rather than exact numbers.

What is called IC50 is the concentration that inhibits the measured activity by half. Usually viability, T/C stands for the ratio of treated to control.
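Further: spheroids exposed to agents for seven days before readout.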
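Wherever viability, T/C is given: percent of DMSO vehicle control luminescence viability.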

For the molecule `Nc1ccccc1NC(=O)c1ccc(CNC(=O)OCc2cccnc2)cc1` + CC(CO)NC(=O)c1cc(-c2ccc(Cl)cc2)nn(-c2cnn(C)c2)c1=O, the IC50 under setting [1] worked out at 3890 nM; the IC50 under setting [2] turned out to be 4060 nM; the IC50 under setting [3] was 4130 nM; the IC50 under setting [4] is 2870 nM; the 50% inhibitory concentration (IC50) under setting [5] was found to be 3100 nM. In addition, the viability, T/C is, setting by setting: under setting [6], 94.2%; under setting [7], 91.2%; under setting [8], 92%; under setting [9], 89.5%; under setting [10], 57.9%; under setting [11], 14.4%. Also, the viability, T/C runs as follows: under setting [12], 92.2%; under setting [13], 91.6%; under setting [14], 90.1%; under setting [15], 89.2%; under setting [16], 60.7%; under setting [17], 11.2%. Moreover, the viability, T/C is, setting by setting: under setting [18], 95.2%; under setting [19], 91.8%; under setting [20], 91.7%; under setting [21], 88.7%; under setting [22], 61.5%; under setting [23], 11.7%. The viability, T/C was 94% under setting [24]; 94.5% under setting [25]; 86.6% under setting [26]; 77.2% under setting [27]; 47.2% under setting [28]; 9.66% under setting [29]. For the same molecule, the viability, T/C is 88.9% under setting [30]; 92.6% under setting [31]; 88.5% under setting [32]; 74.2% under setting [33]; 50.2% under setting [34]; 8.41% under setting [35].

Take `CC1COCCN1c1cc(-c2ccnn2C)c2ccnc(-c3ccn[nH]3)c2n1` (stereo not given) + Cc1ccccc1N=Nc1ccc(NC(=O)c2ccnn2C)c(C)c1: the IC50 stood at 527 nM under setting [1]; 507 nM under setting [2]; 507 nM under setting [3]; 351 nM under setting [4]; 298 nM under setting [5]. For the same molecule, the viability, T/C is, setting by setting: under setting [36], 104%; under setting [37], 99.4%; under setting [6], 97.7%; under setting [7], 98.4%; under setting [8], 67.6%; under setting [9], 27.8%. Besides, the viability, T/C under setting [38] is 101%; the viability, T/C under setting [39] was 107%; the viability, T/C under setting [12] is 97.5%; the viability, T/C under setting [13] is 101%; the viability, T/C under setting [14] is 68%; the viability, T/C under setting [15] was 24.1%. In addition, the viability, T/C under setting [40] is 100%; the viability, T/C under setting [41] was 106%; the viability, T/C under setting [18] was 91%; the viability, T/C under setting [19] was 97.8%; the viability, T/C under setting [20] was 66%; the viability, T/C under setting [21] was 26.9%. In addition, the viability, T/C is 88.6% under setting [42]; 86.7% under setting [43]; 87.3% under setting [24]; 92.6% under setting [25]; 52.7% under setting [26]; 23% under setting [27]. Besides, the viability, T/C by setting is: under setting [44], 77.1%; under setting [45], 83.5%; under setting [30], 76.4%; under setting [31], 73%; under setting [32], 48.7%; under setting [33], 20.9%.

In the case of `CCN(c1cc(-c2ccc(CN3CCOCC3)cc2)cc(C(=O)NCc2c(C)cc(C)[nH]c2=O)c1C)C1CCOCC1`, the viability, T/C by setting is: (compound 0.00949 µM) 105% (2×) and 109%; (compound 0.03 µM) 100% and 102% and 108%; (compound 0.0949 µM) 100% and 105% and 99.7%; (compound 0.3 µM) 94.2% and 98.2% and 97.3%; (compound 0.949 µM) 96.8% and 91.9% and 88.2%; (compound 3 µM) 78.1% and 92.2% and 80.9%. For the same molecule, the IC50 (curve of compound) was above 3000 nM.

In the case of `Cc1ccccc1N=Nc1ccc(NC(=O)c2ccnn2C)c(C)c1`, the viability, T/C is, setting by setting: (compound 0.1 µM) 98.6% [middle of 20 runs]; (compound 0.316 µM) 98.5% [middle of 20 runs]; (compound 1 µM) 101% [middle of 20 runs]; (compound 3.16 µM) 94.4% [middle of 20 runs]; (compound 10 µM) 80.9% [middle of 20 runs]. Further, the IC50 (compound alone, run of 06/14/2022) was above 10000 nM.

As to `CC[C@@]1(O)C(=O)OCc2c1cc1n(c2=O)Cc2cc3c(CN(C)C)c(O)ccc3nc2-1`, the viability, T/C is, setting by setting: (compound 0.000316 µM) 93% and 97.1% and 101%; (compound 0.001 µM) 114% and 106% (2×); (compound 0.00316 µM) 98.4% and 103% and 105%; (compound 0.01 µM) 99.3% and 101% and 106%; (compound 0.0316 µM) 85% and 93.4% and 94.9%; (compound 0.1 µM) 22.1% and 33.6% and 47.4%. In addition, for the setting “curve of compound”, the IC50 was 59.9 nM and 72.9 nM and 94.7 nM.

For `O=C(C=Cc1cccc(S(=O)(=O)Nc2ccccc2)c1)NO` + Cc1ccccc1N=Nc1ccc(NC(=O)c2ccnn2C)c(C)c1, the IC50 under setting [1] was determined as 3990 nM; the IC50 under setting [2] was 4230 nM; the IC50 under setting [3] is 4260 nM; the IC50 under setting [4] came to 3750 nM; the IC50 under setting [5] came out at 3250 nM. Moreover, the viability, T/C runs as follows: under setting [6], 104%; under setting [7], 107%; under setting [8], 109%; under setting [9], 111%; under setting [10], 61.7%; under setting [11], 3.76%. For the same molecule, the viability, T/C is, setting by setting: under setting [12], 105%; under setting [13], 114%; under setting [14], 111%; under setting [15], 106%; under setting [16], 65.2%; under setting [17], 5.12%. The viability, T/C is 97.9% under setting [18]; 109% under setting [19]; 111% under setting [20]; 105% under setting [21]; 66.2% under setting [22]; 3.95% under setting [23]. Moreover, the viability, T/C runs as follows: under setting [24], 96.8%; under setting [25], 95.6%; under setting [26], 104%; under setting [27], 96.5%; under setting [28], 58.1%; under setting [29], 3.54%. For the same molecule, the viability, T/C reads like this: under setting [30], 87.2%; under setting [31], 95.4%; under setting [32], 88.7%; under setting [33], 79.6%; under setting [34], 51.3%; under setting [35], 3.79%.

Take `CC1COCCN1c1cc(-c2ccnn2C)c2ccnc(-c3ccn[nH]3)c2n1` (stereo not given) + Cc1cncc(-c2nc(NCCc3c[nH]c4ccccc34)c3ncn(C(C)C)c3n2)c1: the IC50 is, setting by setting: under setting [1], 254 nM; under setting [2], 405 nM; under setting [3], 361 nM; under setting [4], 80.4 nM; under setting [5], below 3.16 nM. For the same molecule, the viability, T/C reads like this: under setting [36], 83.7%; under setting [37], 96.2%; under setting [6], 93.6%; under setting [7], 97.8%; under setting [8], 39.9%; under setting [9], 12.7%. In addition, the viability, T/C was 91.3% under setting [38]; 91.1% under setting [39]; 74.9% under setting [12]; 85.6% under setting [13]; 60.6% under setting [14]; 11.1% under setting [15]. The viability, T/C reads like this: under setting [40], 77.2%; under setting [41], 79.9%; under setting [18], 85.5%; under setting [19], 71.4%; under setting [20], 55.6%; under setting [21], 10.7%. Moreover, the viability, T/C by setting is: under setting [42], 75.6%; under setting [43], 77.2%; under setting [24], 63%; under setting [25], 28.6%; under setting [26], 50.5%; under setting [27], 9.55%. The viability, T/C is, setting by setting: under setting [44], 3.1%; under setting [45], 4.56%; under setting [30], 3.12%; under setting [31], 6.41%; under setting [32], 2.62%; under setting [33], 1.62%.

For the origin of these results see PubChem BioAssay AID1919005 (Molecular Pharmacology Branch, DTP, NCI, 2023).
